Results on 37 compounds are retold here after PubChem BioAssay AID1404 (The Scripps Research Institute Molecular Screening Center, 2008).

Molecules are shown by their SMILES. Active and inactive are the calls of the source.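 How the source made its calls: active means EC50 for STAT3 reporter activation at or below 10 µM; inactive means the rest.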

The test relates to U3A cells, IL-6 STAT3 luciferase reporter, luminescence. The test is described as follows: STAT3 activators in IL-6-stimulated reporter cells, dose response, counter-screen for STAT1 activator project, U3A cells, STAT1-deficient, luminescence, IL-6 stimulus (AID 1404). For orientation: The purpose of a counterscreen is to sort out artefacts and off-target activity.
Regarding `COc1ccc(N/C=C\C(=O)c2ccc3c(c2)OCO3)cc1OC`, the EC50 (as a rule, the concentration needed to bring the measured effect to its halfway point) is > 55.7 µM (inactive).

Take `COc1ccc(-c2nc3ccc([N+](=O)[O-])cc3[nH]2)cc1`: the EC50 is > 55.7 µM (inactive).

Turning to `Cc1nc(-c2ccc(NC(=O)c3ccccc3Br)cc2)cs1`, the EC50 is > 55.7 µM (inactive).

On to `COc1ccc(NC(=S)Nc2ccc3nccnc3c2)cc1`, for which the EC50 is > 55.7 µM (inactive).

On to `Cc1ccc(-c2cc(N)n(-c3ccccc3)n2)cc1`, for which the EC50 is > 55.7 µM (inactive).

`Nc1ccc2nn(-c3ccccc3)nc2c1`: the EC50 is > 55.7 µM (inactive).

For `O=C(/C=C/c1cccc(F)c1)N1CCc2ccccc21`, the EC50 is > 55.7 µM (inactive).

Take `Cc1ccc(NC(=O)Nc2ccc3oc(C)nc3c2)cc1`: the EC50 was > 55.7 µM (inactive).

As for `C/C(=C\c1ccccc1)C(=O)Nc1nccs1`, the EC50 was > 55.7 µM (inactive).

Regarding `CC(C)(C)N=C1NN=C(c2cc3ccccc3o2)CS1`, the EC50 is > 55.7 µM (inactive).

In the case of `CN1C(=O)/C(=C/C=C2\SCCN2C)SC1=S`, the EC50 was > 55.7 µM (inactive).

As to `CCOC(=O)/C(C#N)=C/c1cc(C)n(-c2ccccc2)c1C`, the EC50 was > 55.7 µM (inactive).

As for `Fc1ccc2nc(Nc3nc4cc5c(cc4s3)OCCO5)sc2c1`, the EC50 is > 55.7 µM (inactive).

Take `c1cncc(-c2nc3cc4ccccc4cc3[nH]2)c1`: the EC50 is > 55.7 µM (inactive).

As to `Clc1ccc(-n2ncc3c(N4CCCC4)ncnc32)cc1`, the EC50 is > 55.7 µM (inactive).

Consider `Cc1ccc(C(=O)Nc2nc3ccccc3s2)s1`, for which the EC50 is > 55.7 µM (inactive).

Take `O=[N+]([O-])c1ccccc1OCCCn1cnc2ccccc21`: the EC50 is > 55.7 µM (inactive).

As to `CCc1c(C)[nH]c(C(=O)OCc2ccccc2)c1C`, the EC50 is > 55.7 µM (inactive).

On to `COc1cccc(N/C=C/C(=O)c2ccc(Cl)cc2)c1`, for which the EC50 is > 55.7 µM (inactive).

Take `O=C(NC(=S)Nc1ccccn1)c1ccc([N+](=O)[O-])cc1`: the EC50 was > 55.7 µM (inactive).

On to `Cc1ccc(/C=C/C(=O)Nc2ccccc2C(N)=O)cc1`, for which the EC50 is > 55.7 µM (inactive).

As to `COc1ccc2c(c1)oc(=O)c1cc(OC)ccc12`, the EC50 is > 55.7 µM (inactive).

Turning to `NC(=O)Cc1ccc2sc(-c3ccccc3)nc2c1`, the EC50 was > 55.7 µM (inactive).

Regarding `c1ccc(CNc2ccc3ccccc3n2)nc1`, the EC50 was > 55.7 µM (inactive).

`CCNc1nc(-c2cc3ccccc3o2)cs1`: the EC50 was > 55.7 µM (inactive).

As for `COc1ccc2nc(Nc3ccc4c(c3)OCO4)sc2c1`, the EC50 was > 55.7 µM (inactive).

Consider `COc1ccc2[nH]c3c(c2c1)CCn1c-3nc2ccccc2c1=O`, for which the EC50 is > 55.7 µM (inactive).

In the case of `CC(=O)NC(=S)Nc1sc2c(c1C#N)CCCCC2`, the EC50 was > 55.7 µM (inactive).

Turning to `Cc1ccc(-c2cnc(-c3ccncc3)o2)cc1`, the EC50 was > 55.7 µM (inactive).

`CCOCC(=O)Nc1nc2ccc(OCC)cc2s1`: the EC50 is > 55.7 µM (inactive).

Regarding `COc1ccc(-c2cc(C)nc3c(-c4ccccc4)cnn23)cc1`, the EC50 is > 55.7 µM (inactive).

Turning to `Cc1nc2ccc(-c3nc4ccccc4o3)cc2[nH]1`, the EC50 was > 55.7 µM (inactive).

Consider `Nc1ccc2oc(-c3ccccc3Cl)nc2c1`, for which the EC50 is > 55.7 µM (inactive).

In the case of `COc1ccc(-c2csc(N3C(=O)CNC3=S)n2)cc1`, the EC50 is > 55.7 µM (inactive).

In the case of `CCOC(=O)c1cnc2c(-c3ccccc3)cnn2c1N`, the EC50 is > 55.7 µM (inactive).

For the compound `C=CCNc1nc(-c2cc3ccccc3o2)cs1`, the EC50 is > 55.7 µM (inactive).

Take `CC(=O)c1cccc(N/C=C\C(=O)c2ccc(C)cc2)c1`: the EC50 is > 55.7 µM (inactive).
